According to patent US9493461B2, “Tetracyclic heterocycle compounds and methods of use thereof for the treatment of hepatitis C” (priority 2013, dated 2016):

Assays:
HCV replicon genotype 1b = experiment: HCV replicon assay, genotype 1b (cell ELISA for replicon-encoded NS3/4A); format: cell-based, hepatitis C virus (HCV); conditions: Hepatitis C virus, 96 h, read-out: 1b IC50 (nM), genotype 1b replicon cells, 96 hours incubation, NS3/4A ELISA readout, % of DMSO control
In short: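 Genotype 1b replicon cells (neomycin-selected, G418 removed for assay) incubated 96 h with compound dilution series. Replication measured by cell ELISA for replicon-encoded NS3/4A after lysis; IC50 from four-parameter fit relative to DMSO control.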

HCV replicon genotype 1a = experiment: HCV replicon assay, genotype 1a (cell ELISA for replicon-encoded NS3/4A); format: cell-based, hepatitis C virus (HCV); conditions: Hepatitis C virus, 96 h, read-out: 1a IC50 (nM), genotype 1a replicon cells, 96 hours incubation, NS3/4A ELISA readout, % of DMSO control
In short: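 Stable G418-selected neomycin-resistant HCV replicon cells were plated with serially diluted compound without G418 and incubated 96 h. After washing and lysis, replicon RNA was measured indirectly by cell ELISA for replicon-encoded NS3/4A; IC50 from four-parameter fit relative to DMSO control.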

Structure (SMILES): CNC(=O)c1c(-c2ccc(F)cc2)oc2cc(N(C)S(C)(=O)=O)c(-c3ccc4nc(CN5CCC(C)(O)CC5)n5c6cccc(F)c6cc5c4n3)cc12 [Example 93]
- IC50 (HCV replicon genotype 1b): 7.78 nM
- IC50 (HCV replicon genotype 1a): 4.19 nM

Structure (SMILES): CNC(=O)c1c(-c2ccc(F)cc2)oc2cc(N(C)S(C)(=O)=O)c(-c3ccc4nc(CN5CC(O)(C(F)(F)F)C5)n5c6cccc(F)c6cc5c4n3)cc12 [Example 94]
- IC50 (HCV replicon genotype 1b): 6.98 nM
- IC50 (HCV replicon genotype 1a): 4.33 nM

Structure (SMILES): CNC(=O)c1c(-c2ccc(F)cc2)oc2cc(N(C)S(C)(=O)=O)c(-c3ccc4nc(CN5CC(O)(C6CC6)C5)n5c6cccc(F)c6cc5c4n3)cc12 [Example 95]
- IC50 (HCV replicon genotype 1b): 9.12 nM
- IC50 (HCV replicon genotype 1a): 4.55 nM

Structure (SMILES): CNC(=O)c1c(-c2ccc(F)cc2)oc2cc(N(C)S(C)(=O)=O)c(-c3ccc4nc(CN5[C@H](C)COC[C@@H]5C)n5c6cccc(F)c6cc5c4n3)cc12 [Example 96]
- IC50 (HCV replicon genotype 1b): 11.2 nM
- IC50 (HCV replicon genotype 1a): 7.76 nM

Structure (SMILES): CNC(=O)c1c(-c2ccc(F)cc2)oc2cc(N(C)S(C)(=O)=O)c(-c3ccc4nc(CN5CC(C(C)(C)O)C5)n5c6cccc(F)c6cc5c4n3)cc12 [Example 97]
- IC50 (HCV replicon genotype 1b): 3.49 nM
- IC50 (HCV replicon genotype 1a): 2.98 nM

Structure (SMILES): CNC(=O)c1c(-c2ccc(F)cc2)oc2cc(N(C)S(C)(=O)=O)c(-c3ccc4nc(CN5CCN6C(=O)OCC6C5)n5c6cccc(F)c6cc5c4n3)cc12 (stereo not drawn) [Example 98]
- IC50 (HCV replicon genotype 1b): 4.16 nM
- IC50 (HCV replicon genotype 1a): 4.79 nM

Structure (SMILES): CNC(=O)c1c(-c2ccc(F)cc2)oc2cc(N(C)S(C)(=O)=O)c(-c3ccc4nc(CN5CCC5(C)C)n5c6cccc(F)c6cc5c4n3)cc12 [Example 99]
- IC50 (HCV replicon genotype 1b): 5.76 nM
- IC50 (HCV replicon genotype 1a): 3.32 nM

Structure (SMILES): CNC(=O)c1c(-c2ccc(F)cc2)oc2cc(N(C)S(C)(=O)=O)c(-c3ccc4nc(CN5CC[C@@H](OC)C5)n5c6cccc(F)c6cc5c4n3)cc12 [Example 100]
- IC50 (HCV replicon genotype 1b): 4.46 nM
- IC50 (HCV replicon genotype 1a): 2.6 nM

Structure (SMILES): CNC(=O)c1c(-c2ccc(F)cc2)oc2cc(N(C)S(C)(=O)=O)c(-c3ccc4nc(CN5C[C@H](F)[C@@H](F)C5)n5c6cccc(F)c6cc5c4n3)cc12 [Example 101]
- IC50 (HCV replicon genotype 1b): 4.24 nM
- IC50 (HCV replicon genotype 1a): 3.13 nM

Structure (SMILES): CNC(=O)c1c(-c2ccc(F)cc2)oc2cc(N(C)S(C)(=O)=O)c(-c3ccc4nc(CN5CC6CC6C5)n5c6cccc(F)c6cc5c4n3)cc12 (stereo not drawn) [Example 102]
- IC50 (HCV replicon genotype 1b): 11.8 nM
- IC50 (HCV replicon genotype 1a): 7.03 nM

Structure (SMILES): CNC(=O)c1c(-c2ccc(F)cc2)oc2cc(N(C)S(C)(=O)=O)c(-c3ccc4nc(CN5CC(C)C5)n5c6cccc(F)c6cc5c4n3)cc12 [Example 103]
- IC50 (HCV replicon genotype 1b): 5.27 nM
- IC50 (HCV replicon genotype 1a): 2.05 nM

Structure (SMILES): CNC(=O)c1c(-c2ccc(F)cc2)oc2cc(N(C)S(C)(=O)=O)c(-c3ccc4nc(CN5CC(C)(OC)C5)n5c6cccc(F)c6cc5c4n3)cc12 [Example 104]
- IC50 (HCV replicon genotype 1b): 5.23 nM
- IC50 (HCV replicon genotype 1a): 2.31 nM

Structure (SMILES): CNC(=O)c1c(-c2ccc(F)cc2)oc2cc(N(C)S(C)(=O)=O)c(-c3ccc4nc(CN5CCN(C(C)=O)CC5)n5c6cccc(F)c6cc5c4n3)cc12 [Example 105]
- IC50 (HCV replicon genotype 1b): 3.79 nM
- IC50 (HCV replicon genotype 1a): 2.6 nM

Structure (SMILES): CNC(=O)c1c(-c2ccc(F)cc2)oc2cc(N(C)S(C)(=O)=O)c(-c3ccc4nc(CN5CCC(F)(C#N)CC5)n5c6cccc(F)c6cc5c4n3)cc12 [Example 106]
- IC50 (HCV replicon genotype 1b): 8.2 nM
- IC50 (HCV replicon genotype 1a): 7.25 nM

Structure (SMILES): CNC(=O)c1c(-c2ccc(F)cc2)oc2cc(N(C)S(C)(=O)=O)c(-c3ccc4nc(CN5CC(S(C)(=O)=O)C5)n5c6cccc(F)c6cc5c4n3)cc12 [Example 107]
- IC50 (HCV replicon genotype 1b): 3.04 nM
- IC50 (HCV replicon genotype 1a): 3.33 nM

Structure (SMILES): CNC(=O)c1c(-c2ccc(F)cc2)oc2cc(N(C)S(C)(=O)=O)c(-c3ccc4nc(CN5CCN(C)CC5)n5c6cccc(F)c6cc5c4n3)cc12 [Example 108]
- IC50 (HCV replicon genotype 1b): 8.48 nM
- IC50 (HCV replicon genotype 1a): 6.08 nM

Structure (SMILES): CNC(=O)c1c(-c2ccc(F)cc2)oc2cc(N(C)S(C)(=O)=O)c(-c3ccc4nc(CN5CC6CC5CO6)n5c6cccc(F)c6cc5c4n3)cc12 (stereo not drawn) [Example 109]
- IC50 (HCV replicon genotype 1b): 11.2 nM
- IC50 (HCV replicon genotype 1a): 8.1 nM

Structure (SMILES): CNC(=O)c1c(-c2ccc(F)cc2)oc2cc(N(C)S(C)(=O)=O)c(-c3ccc4nc(CN5CC(F)(C#N)C5)n5c6cccc(F)c6cc5c4n3)cc12 [Example 110]
- IC50 (HCV replicon genotype 1b): 5.51 nM
- IC50 (HCV replicon genotype 1a): 4.04 nM
